Literature values in patent US20060165781A1, “Orally disintegrating tablets and process for obtaining them” (priority 2002, published 2006).

Conditions: 5 g in 150 mL of water at 20° C.

For `OC[C@@H](O)[C@@H](O)[C@H](O)[C@H](O)CO` [Spray-dried mannitol, mannitol], the “Time to dissolve in water” value is given as “approximately 5 s”.
